Row | SMILES | melting point [°C]
1 | Cl.c1c2c(cc3c1OCO3)C1CNCC(C2)C1 (stereo not shown) | 241 to 243
2 | Cl.Fc1ccc2c(c1)CC1CC2CN(Cc2ccccc2)C1 (stereo not shown) | 202 to 203
3 | Cl.c1cncc(-c2ccc3c(c2)CC2CNCC3C2)c1 (stereo not shown) | 240 to 242
4 | COc1cccc2c1CC1CNCC2C1.Cl (stereo not shown) | 272 to 274
5 | COc1ccc2c(c1)CC1CNCC2C1.Cl (stereo not shown) | 253.5 to 258
6 | Cl.O=[N+]([O-])c1ccc2c(c1)C1CNCC(C2)C1 (stereo not shown) | 215 to 220
7 | Cl.FC(F)Oc1ccc2c(c1)CC1CNCC2C1 (stereo not shown) | 230 to 234

Source: patent US6706702B2, “Aryl fused azapolycyclic compounds” (Pfizer Inc., priority 1998, dated 2004)
